# Measured values published in patent US5939279A, “Inhibition of bacterial binding by high-mannose oligosaccharides” (priority 1997, dated 1999).
# Legend:
# [1] = tested on: Enterobacter cloacae; experiment: microbe, parasite or virus in culture; assay type: cell-based; conditions: for IC50: 1 h, read-out: 50% inhibition of binding; for inhibition of binding: even at 100 mM concentrations
# Experimental: (§1) Bacterial adherence was measured as follows: confluent HT-29 cell monolayers, contained in 24 well plates, were washed two times with PBS. Various amounts of the labeled bacteria, all in the same final volume of buffer, were added to the monolayers and allowed to incubate at 37° C. for 1 hour, with intermittent agitation. At least three wells received each concentration of bacteria. At the end of the incubation, unbound bacteria were removed by aspiration, and the monolayers were washed at least 5 times with PBS. After this thorough washing, the HT-29 cells were released from each well with a trypsin-EDTA mixture and the cell suspension was placed in a scintillation vial. Each well was then washed with another 0.5 ml of water along with scraping with a plastic paddle to remove any firmly attached cells. This second wash was then added to the same vial that contained the first trypsin digest. Ten ml of scintillation fluid were added and radioactivity was determined as a measure of the number of bacteria bound.
# A variety of simple sugars (D-mannose, D-galactose, D-fructose, L-fucose, D-GlcNAc, sialic acid) were tested at various concentrations to determine their ability to block the adhesion of Enterobacter cloacae to the HT-29 cells. In addition, p-nitrophenyl-α-D-mannoside and 4-methylumbelliferyl-α-D-mannoside and glycopeptides with various high-mannose or complex types of oligosaccharides were also tested as inhibitors. […] […] The plates were then incubated and harvested as described above in the adherence assay, and the amount of radioactivity bound to the cell monolayer was determined.
# [2] = tested on: Escherichia coli; conditions: studies by Firon et al (8); cited from earlier work
# [3] = tested on: HT-29 cells; experiment: Adhesion of E. cloacae to HT-29 cells grown in the presence of N-linked glycoprotein processing inhibitors; assay type: cell-based; conditions: for activation at 100 µg/mL: inhibitor 100 μg/ml; for Adhesion (cpm): average of three sets of experiments; for change in the amount of radioactive bacteria bound: text summary of Table II; for activation at 5 µg/mL: inhibitor 5 μg/ml; for activation at 25 µg/mL: inhibitor 25 μg/ml; for activation at 50 µg/mL: inhibitor 50 μg/ml; for activation at 10 µg/mL: inhibitor 10 μg/ml
# Experimental: as §1
# HT-29 cells were transferred at low density to multiwell plates, and grown in McCoy's medium containing different concentrations of various processing inhibitors. Thus, one 24-well plate was divided into 4 sections, each with 6 wells having the following components: castanospermine at 0, 5, 10, 25, 50 and 100 μg/ml; deoxymannojirimycin at 0, 5, 25, 50, 100 and 200 μg/ml; kifunensine at 0, 2, 5, 10, 25 and 50 μg/ml; swainsonine at 0, 1, 5, 10, 25 and 50 μg/ml. HT-29 cells were allowed to grow to confluency over a period of 4 to 5 days. Once the cells reached confluency, the media was removed by aspiration and the monolayers were washed with PBS. Each well was then challenged with the same number of radioactive bacteria to determine the extent of bacterial adhesion, as described above in the adhesion assay.
# [4] = biological target: 35 kDa pili subunit (Enterobacter cloacae, UniProt Q9Z643); experiment: Modified Western blot: labeling of pili adhesive subunit by α-mannosylated-biotinylated-albumin; assay type: binding; conditions: 50 mM sugar in incubation; FIG. 5
# Experimental: Modified Western blot using an α-mannosylated-biotinylated-albumin, followed by an avidin-horseradish peroxidase conjugate and then visualization with 4-chloro-napthol according to the manufacturer's directions; D. Reaction system as in C, but incubated in the presence of 50 mM α-D-glucose; E. Reaction system as in C and D, but incubated in the presence of 50 mM α-D-mannose.
# Thus, purified pili were subjected to 12% SDS-PAGE, and the resulting protein bands were transferred to nitrocellulose membranes. After washing the membranes to remove SDS, and incubating them with PBS containing 5% bovine serum albumin, they were incubated for 2 hours at room temperature with a mannosylated-albumin that contained a biotin tag. Some incubations also contained 50 mM D-mannose or 50 mM D-glucose.
# [5] = Homo sapiens, HT-29, percent relative to the control, read-out: Increase in adhesion (%)
# [6] = inhibitor 5 μg/ml in culture medium
# [7] = inhibitor 10 μg/ml in culture medium
# [8] = inhibitor 25 μg/ml in culture medium
# [9] = inhibitor 50 μg/ml in culture medium
# [10] = inhibitor 100 μg/ml in culture medium
# Sequence of 35 kDa pili subunit (Q9Z643 entry or part of it): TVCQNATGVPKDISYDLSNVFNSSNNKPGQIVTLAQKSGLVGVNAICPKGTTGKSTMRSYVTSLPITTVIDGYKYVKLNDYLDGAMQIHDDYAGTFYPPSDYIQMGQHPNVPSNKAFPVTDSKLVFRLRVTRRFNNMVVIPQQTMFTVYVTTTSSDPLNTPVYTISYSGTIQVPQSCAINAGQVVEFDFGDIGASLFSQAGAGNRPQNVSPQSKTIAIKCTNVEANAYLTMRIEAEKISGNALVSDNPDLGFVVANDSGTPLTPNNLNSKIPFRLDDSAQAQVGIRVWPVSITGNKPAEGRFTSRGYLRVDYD
structure (smiles),measurement,setting,value
"Cc1cc(=O)oc2cc(O[C@H]3O[C@H](CO)[C@@H](O)[C@H](O)[C@@H]3O)ccc12 [4-methylumbilliferyl-α-D-mannoside, 4-methylumbelliferyl-α-D-mannoside]",IC50,[1]; Enterobacter cloacae,10 µM
same,inhibition at 100 µM,"[1]; Enterobacter cloacae, read-out: inhibition of binding",80 to 90%
same,"inhibitor of Escherichia coli binding to epithelial cells, relative effectiveness",[2],even better then the p-nitrophenyl-derivative
O[C@H]1[C@H](O)[C@@H](O)CN2CC[C@H](O)[C@H]12 [Castanospermine],activation at 100 µg/mL,[3]; [5],8%
same,Adhesion (cpm),[3]; [6],"12,410 cpm"
same,Adhesion (cpm),[3]; [7],"13,787 cpm"
same,Adhesion (cpm),[3]; [8],"13,973 cpm"
same,Adhesion (cpm),[3]; [9],"13,626 cpm"
same,Adhesion (cpm),[3]; [10],"14,943 cpm"
same,change in the amount of radioactive bacteria bound,[3],did not cause any significant change
O=C[C@H](O)[C@@H](O)[C@@H](O)[C@H](O)CO [D-galactose],inhibition of binding,[1],did not inhibit binding
OC[C@H]1OC(O)[C@H](O)[C@@H](O)[C@@H]1O (stereo partly drawn) [D-glucose],inhibition of binding,[1],did not inhibit binding
OC[C@H]1OC(O)[C@@H](O)[C@@H](O)[C@@H]1O (stereo partly drawn) [D-mannose],IC50,[1]; Enterobacter cloacae,500 µM
same,labeling of the 35 kDa band by mannosylated-biotinylated-albumin,[4],inhibited
OC[C@H]1NC[C@@H](O)[C@@H](O)[C@@H]1O [Deoxymannojirimycin],activation at 5 µg/mL,[3]; [5],36%
same,activation at 25 µg/mL,[3]; [5],47%
same,activation at 50 µg/mL,[3]; [5],49%
same,activation at 100 µg/mL,[3]; [5],53%
same,activation at 200 µg/mL,"[3]; Homo sapiens, HT-29, inhibitor 200 μg/ml, percent relative to the control, read-out: Increase in adhesion (%)",50%
same,Adhesion (cpm),[3]; [6],"18,630 cpm"
same,Adhesion (cpm),[3]; [8],"20,180 cpm"
same,Adhesion (cpm),[3]; [9],"20,500 cpm"
same,Adhesion (cpm),[3]; [10],"21,018 cpm"
same,Adhesion (cpm),[3]; inhibitor 200 μg/ml in culture medium,"20,548 cpm"
O=C1N[C@@H]2[C@@H](O)[C@@H](O)[C@H](O)[C@@H](CO)N2C1=O [Kifunensine],activation at 2 µg/mL,"[3]; Homo sapiens, HT-29, inhibitor 2 μg/ml, percent relative to the control, read-out: Increase in adhesion (%)",42%
same,activation at 5 µg/mL,[3]; [5],50%
same,activation at 10 µg/mL,[3]; [5],43%
same,activation at 25 µg/mL,[3]; [5],52%
same,activation at 50 µg/mL,[3]; [5],75%
same,Adhesion (cpm),[3]; inhibitor 2 μg/ml in culture medium,"19,033 cpm"
same,Adhesion (cpm),[3]; [6],"20,161 cpm"
same,Adhesion (cpm),[3]; [7],"19,257 cpm"
same,Adhesion (cpm),[3]; [8],"20,414 cpm"
same,Adhesion (cpm),[3]; [9],"23,442 cpm"
C[C@H](O)[C@@H](O)[C@@H](O)[C@H](O)C=O [L-fucose],inhibition of binding,[1],did not inhibit binding
CC(=O)N[C@H]1C(O)O[C@H](CO)[C@H](O)[C@@H]1O (some centres unmarked) [N-acetylgalactosamine],inhibition of binding,[1],did not inhibit binding
CC(=O)N[C@H]1C(O)O[C@H](CO)[C@@H](O)[C@@H]1O (some centres unmarked) [N-acetylglucosamine],inhibition of binding,[1],did not inhibit binding
O[C@H]1[C@H]2[C@H](O)CCCN2C[C@H]1O [Swainsonine],activation at 1 µg/mL,"[3]; Homo sapiens, HT-29, inhibitor 1 μg/ml, percent relative to the control, read-out: Increase in adhesion (%)",10%
same,activation at 5 µg/mL,[3]; [5],5%
same,activation at 10 µg/mL,[3]; [5],11%
same,activation at 50 µg/mL,[3]; [5],8%
same,Adhesion (cpm),[3]; inhibitor 1 μg/ml in culture medium,"15,219 cpm"
same,Adhesion (cpm),[3]; [6],"14,577 cpm"
same,Adhesion (cpm),[3]; [7],"15,275 cpm"
same,Adhesion (cpm),[3]; [8],"13,857 cpm"
same,Adhesion (cpm),[3]; [9],"14,965 cpm"
same,change in the amount of radioactive bacteria bound,[3],did not cause any change
O=[N+]([O-])c1ccc(O[C@H]2O[C@H](CO)[C@@H](O)[C@H](O)[C@@H]2O)cc1 [p-nitrophenyl-α-D-mannoside],reversal of binding,[1]; 0.5 mM added to the monolayers after the bacteria had bound,reversed
same,IC50,[1]; Enterobacter cloacae,20 µM
same,"inhibitor of Escherichia coli binding to epithelial cells, relative effectiveness",[2],considerably better as an inhibitor than was α-methylmannoside
CC(=O)N[C@H]1[C@H]([C@H](O)[C@H](O)CO)OC(O)(C(=O)O)C[C@@H]1O (some centres unmarked) [sialic acid],inhibition of binding,[1],did not inhibit binding
CO[C@H]1O[C@H](CO)[C@@H](O)[C@H](O)[C@@H]1O [α-methylmannoside],reversal of binding,[1]; 5 mM added to the monolayers after the bacteria had bound,reversed
same,IC50,[1]; Enterobacter cloacae,150 µM
